pIC50: −log10 of the molar value.
Columns and labels:
CSF1R (h) = target: T1, CSF1R (h) (Homo sapiens, UniProt P07333); experiment: Enzymatic activity test, CSF1R (h); assay type: biochemical; settings: 10 μM [γ-33P]-ATP, 40 minutes, room temperature
T1 construct: purchased
Experimental: Assay 3: Enzymatic Activity Test of the Compounds of the Present Invention
Test substances: the compounds of the present invention, wherein the structures and preparations thereof were as described above.
(1) Preparation of the Compound Stock Solution
The compound was dissolved in 100% DMSO to prepare a stock solution with a maximum concentration of 500 μM.
(2) Preparation of the Compound Working Solution
The compound stock solution was diluted to final concentrations of 500, 150, 50, 15, 5, 1.5, 0.5, 0.15 and 0.05 μM to become the compound working solutions (50×).
(3) Preparation of Different Enzyme Reaction Solutions
The enzymatic reaction was activated by using 10 mM magnesium acetate and 10 μM [γ-^33P]-ATP to form an Mg/ATP mixed solution.
In a 384-well plate, the compound working solution was added to final concentrations of 10000, 3000, 1000, 300, 100, 30, 10, 3, and 1 nM. Then different enzyme reaction solutions prepared according to the above conditions were added. The incubation was carried out for 40 minutes at room temperature. The test was terminated by the addition of a 0.5% phosphoric acid solution. 10 μL of the reaction solution was taken and dropped to the P30 filter paper. […] The grayscale analysis of the results was performed using Image J software and the IC50 values were calculated using GraphPad 5.0 software.

H1299 cell pMer = target: T2, H1299 cell pMer (Homo sapiens, UniProt Q12866); experiment: Inhibitory activity on the cell pMer (Western Blot); assay type: cell-based; settings: H1299 cells, compound 0.35, 1.1, 3.3, 10 nM, Human MerMab 200 ng/mL
T2 construct: The H1299 cells were inoculated in a 6-well plate; endogenous in cells; host or cells: H1299
T2 sequence (Q12866 21-999): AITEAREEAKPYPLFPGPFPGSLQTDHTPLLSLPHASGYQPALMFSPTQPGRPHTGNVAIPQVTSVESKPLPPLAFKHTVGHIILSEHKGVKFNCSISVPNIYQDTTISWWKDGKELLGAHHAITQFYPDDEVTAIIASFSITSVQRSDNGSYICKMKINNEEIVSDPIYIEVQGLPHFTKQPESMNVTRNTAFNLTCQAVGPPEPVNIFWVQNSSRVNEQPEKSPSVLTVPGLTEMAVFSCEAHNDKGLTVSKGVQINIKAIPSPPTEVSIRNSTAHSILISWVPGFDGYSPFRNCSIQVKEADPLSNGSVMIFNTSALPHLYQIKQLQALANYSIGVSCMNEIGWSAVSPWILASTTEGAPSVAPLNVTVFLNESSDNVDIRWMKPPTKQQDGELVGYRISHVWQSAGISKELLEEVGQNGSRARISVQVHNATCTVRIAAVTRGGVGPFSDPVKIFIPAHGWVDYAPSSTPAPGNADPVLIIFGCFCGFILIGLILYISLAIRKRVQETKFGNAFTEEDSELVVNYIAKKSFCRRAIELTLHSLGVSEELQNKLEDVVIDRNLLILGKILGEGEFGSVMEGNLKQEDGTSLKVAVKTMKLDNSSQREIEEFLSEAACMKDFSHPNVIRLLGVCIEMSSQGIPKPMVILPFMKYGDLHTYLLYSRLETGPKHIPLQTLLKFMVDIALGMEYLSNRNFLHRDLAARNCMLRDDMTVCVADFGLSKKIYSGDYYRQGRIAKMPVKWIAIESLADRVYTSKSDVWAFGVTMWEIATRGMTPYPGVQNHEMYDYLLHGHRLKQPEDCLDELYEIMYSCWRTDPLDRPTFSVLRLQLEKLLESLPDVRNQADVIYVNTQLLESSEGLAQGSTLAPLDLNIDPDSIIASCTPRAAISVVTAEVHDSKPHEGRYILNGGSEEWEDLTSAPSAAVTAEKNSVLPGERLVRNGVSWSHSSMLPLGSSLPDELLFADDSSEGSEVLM
Experimental: Assay 6: Test for Inhibitory Activities of the Compounds of the Present Invention on the Cell pMer
H1299 is a non-small cell lung cancer cell.
Test substances: the compounds of the present invention, wherein the structures thereof were as described above.
Test equipment: protein electrophoresis apparatus (manufactured by Bio Rad), transfer unit (manufactured by Bio Rad), exposure unit (manufactured by Tanon), CO2 cell incubator (manufactured by Thermo).
The H1299 cells were inoculated in a 6-well plate (containing 10% FBS 1640 medium, 5×10^5 cells per well), and adherent cells were cultivated at 37° C. in a 5% CO2 condition for 18 hours. The cells were starved overnight. Different concentrations of compounds were added. The final compound concentrations were 0.35, 1.1, 3.3 and 10 nM, and the final DMSO content was 1‰. The negative control wells contained the medium containing 1‰ DMSO. After incubating at 37° C. in a 5% CO2 condition for 60 minutes, Human MerMab (R&D, final concentration 200 ng/mL) was added to each well. After further incubating for 60 minutes, the cell total protein was extracted for Western Blot and the IC50 values were calculated using GraphPad 5.0 software. The inhibitory activity of the compound on the cell pMer was examined.

T1 sequence (P07333 20-972): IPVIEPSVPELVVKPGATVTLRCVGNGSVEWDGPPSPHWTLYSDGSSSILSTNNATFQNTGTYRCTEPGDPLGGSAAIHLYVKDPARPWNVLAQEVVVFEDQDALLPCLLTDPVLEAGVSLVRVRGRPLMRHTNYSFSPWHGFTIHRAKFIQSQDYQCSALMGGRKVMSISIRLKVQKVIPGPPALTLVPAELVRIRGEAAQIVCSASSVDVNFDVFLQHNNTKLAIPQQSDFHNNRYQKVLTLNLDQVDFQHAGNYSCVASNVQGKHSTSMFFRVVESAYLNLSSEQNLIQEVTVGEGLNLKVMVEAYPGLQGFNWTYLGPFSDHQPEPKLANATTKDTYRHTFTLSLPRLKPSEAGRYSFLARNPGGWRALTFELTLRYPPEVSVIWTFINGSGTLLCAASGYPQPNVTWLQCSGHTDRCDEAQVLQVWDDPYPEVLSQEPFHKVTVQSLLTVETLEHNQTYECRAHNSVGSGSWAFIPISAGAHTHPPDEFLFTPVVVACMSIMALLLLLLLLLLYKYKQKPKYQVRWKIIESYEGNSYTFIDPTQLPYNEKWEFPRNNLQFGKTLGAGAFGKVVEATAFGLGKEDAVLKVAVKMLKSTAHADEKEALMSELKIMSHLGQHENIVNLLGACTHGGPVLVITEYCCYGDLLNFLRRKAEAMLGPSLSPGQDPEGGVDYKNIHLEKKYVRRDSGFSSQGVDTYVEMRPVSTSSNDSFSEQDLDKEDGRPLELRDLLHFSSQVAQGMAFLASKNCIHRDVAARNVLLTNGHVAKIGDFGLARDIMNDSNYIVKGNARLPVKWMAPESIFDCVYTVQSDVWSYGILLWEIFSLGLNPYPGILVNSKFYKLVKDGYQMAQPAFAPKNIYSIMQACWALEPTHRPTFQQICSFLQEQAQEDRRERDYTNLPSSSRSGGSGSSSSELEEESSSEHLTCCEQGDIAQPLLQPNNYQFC

pIC50 (CSF1R (h)) | pIC50 (H1299 cell pMer) | Structure (SMILES)
7.17 | > 9.46 | COc1cc2nccc(Oc3ccc(NC(=O)c4nn(C5CC5)cc(-c5ccc(F)cc5)c4=O)cn3)c2cc1OC [Compound 36]
– | 8.48 to 8.96 | COc1cc2nccc(Oc3ncc(NC(=O)c4nn(C5CC5)cc(-c5ccc(F)cc5)c4=O)cn3)c2cc1OC [Compound 37, 1-cyclopropyl-N-(2-((6,7-dimethoxyquinolin-4-yl)oxy)pyrimidine-5-yl)-5-para-fluorophenyl-4-oxo-1,4-dihydropyridazine-3-carboxamide]
7.24 | – | COc1cc2nccc(Oc3ccc(NC(=O)c4cn(C(C)C)nc(-c5ccc(F)cc5)c4=O)cn3)c2cc1OC [Compound 38, N-(6-((6,7-dimethoxyquinolin-4-yl)oxy)pyridin-3-yl)-6-para-fluorophenyl-2-isopropyl-5-oxo-2,5-dihydropyridazine-4-carboxamide]
6.59 | – | COc1cc2nccc(Oc3ncc(NC(=O)c4cn(C(C)C)nc(-c5ccc(F)cc5)c4=O)cn3)c2cc1OC [Compound 40, N-(2-((6,7-dimethoxyquinolin-4-yl)oxy)pyrimidine-5-yl)-6-(4-fluorophenyl)-2-isopropyl-5-oxo-2,5-dihydropyridazine-4-carboxamide]
– | > 8.48 | COc1cc2nccc(Oc3ccc(NC(=O)c4cn(C(C)C)nc(-c5ccc(F)cc5)c4=O)nc3)c2cc1OC [Compound 41, N-(5-((6,7-dimethoxyquinolin-4-yl)oxy)pyridin-2-yl)-6-(4-fluorophenyl)-2-isopropyl-5-oxo-2,5-dihydropyridazine-4-carboxamide]
– | > 8.96 | COc1cc2nccc(Oc3ccc(NC(=O)c4cn(C5CC5)nc(-c5ccc(F)cc5)c4=O)nc3)c2cc1OC [Compound 42, 2-cyclopropyl-N-(5--((6,7-dimethoxyquinolin-4-yl)oxy)pyridin-2-yl)-6-(4-fluorophenyl)-5-oxo-2,5-dihydropyridazine-4-carboxamide]
– | > 8.96 | COc1cc2nccc(Oc3ccc(NC(=O)c4cn(C5CC5)nc(-c5ccc(F)cc5)c4=O)cn3)c2cc1OC [Compound 43, 2-cyclopropyl-N-(6-((6,7-dimethoxyquinolin-4-yl)oxy)pyridin-3-yl)-6-para-fluorophenyl-5-oxo-2,5-dihydropyridazine-4-carboxamide]
– | > 8.96 | COc1cc2nccc(Oc3cnc(NC(=O)c4cn(C5CC5)nc(-c5ccc(F)cc5)c4=O)nc3)c2cc1OC [Compound 45, 2-cyclopropyl-N-(5-((6,7-dimethoxyquinolin-4-yl)oxy)pyrimidine-2-yl)-6-(4-fluorophenyl)-5-oxo-2,5-dihydropyridazine-4-carboxamide]
– | > 9.43 | COc1cc2nccc(Oc3ccc(NC(=O)c4nn(C5CC5)cc(-c5ccc(C)cc5)c4=O)nc3)c2cc1OC [Compound 46, 1-cyclopropyl-N-(5-((6,7-dimethoxyquinolin-4-yl)oxy)pyridin-2-yl)-4-oxo-5-p-tolyl-1,4-dihydropyridazine-3-carboxamide]

The next lines start with the molecule.

Structure (SMILES) | pIC50 (CSF1R (h)) | pIC50 (H1299 cell pMer)
COc1cc2nccc(Oc3ccc(NC(=O)c4cn(C(C)C)cc(-c5ccc(C)cc5)c4=O)nc3)c2cc1OC [Compound 1, N-(5-((6,7-dimethoxyquinolin-4-yl)oxy)pyridin-2-yl)-1-isopropyl-4-oxo-5-p-tolyl-1,4-dihydropyridin-3-carboxamide] | 6.70 | 8.48 to 8.96
COc1cc2nccc(Oc3ccc(NC(=O)c4cn(C(C)C)cc(-c5ccc(F)cc5)c4=O)nc3)c2cc1OC [Compound 14, N-(5-((6,7-dimethoxyquinolin-4-yl)oxy)pyridin-2-yl)-5-(4-fluorophenyl)-1-isopropyl-4-oxo-1,4-dihydropyridin-3-carboxamide] | 7.26 | 9.46
COc1cc2nccc(Oc3ccc(NC(=O)c4nn(C(C)C)cc(-c5ccc(F)cc5)c4=O)nc3)c2cc1OC [Compound 15, N-(5-((6,7-dimethoxyquinolin-4-yl)oxy)pyridin-2-yl)-5-(4-fluorophenyl)-1-isopropyl-4-oxo-1,4-dihydropyridazine-3-carboxamide] | 7.42 | > 9.46
COc1cc2nccc(Oc3cnc(NC(=O)c4nn(C(C)C)cc(-c5ccc(F)cc5)c4=O)nc3)c2cc1OC [Compound 16, N-(5-((6,7-dimethoxyquinolin-4-yl)oxy)pyrimidine-2-yl)-5-(4-fluorophenyl)-1-isopropyl-4-oxo-1,4-dihydropyridazine-3-carboxamide] | 7.21 | > 8.96
COc1cc2nccc(Oc3cnc(NC(=O)c4cn(C(C)C)cc(-c5ccc(F)cc5)c4=O)nc3)c2cc1OC [Compound 20, N-(5-((6,7-dimethoxyquinolin-4-y)oxy)pyrimidine-2-yl)-5-(4-fluorophenyl)-1-isopropyl-4-oxo-1,4-dihydropyridin-3-carboxamide] | 7.11 | 8.96
COc1cc2nccc(Oc3ccc(NC(=O)c4nn(C(C)C)cc(-c5ccc(F)cc5)c4=O)cn3)c2cc1OC [Compound 29, N-(6-((6,7-dimethoxyquinolin-4-yl)oxy)pyridin-3-yl)-1-isopropyl-4-oxo-5-para-fluorophenyl-1,4-dihydropyridazine-3-carboxamide] | 7.29 | > 8.96
COc1cc2nccc(Oc3ccc(NC(=O)c4cn(C5CC5)cc(-c5ccc(F)cc5)c4=O)nc3)c2cc1OC [Compound 30, N-(5-((6,7-dimethoxyquinolin-4-yl)oxy)pyridin-2-yl)-1-cyclopropyl-4-oxo-5-para-fluorophenyl-1,4-hydropyridin-3-carboxamide] | 7.21 | 8.48 to 8.96
COc1cc2nccc(Oc3ccc(NC(=O)c4nn(C5CC5)cc(-c5ccc(F)cc5)c4=O)nc3)c2cc1OC [Compound 31] | 7.70 | > 9.46
COc1cc2nccc(Oc3cnc(NC(=O)c4cn(C5CC5)cc(-c5ccc(F)cc5)c4=O)nc3)c2cc1OC [Compound 32, 1-cyclopropyl-N-(5-((6,7-dimethoxyquinolin-4-yl)oxy)pyrimidine-2-yl)-5-(4-fluorophenyl)-4-oxo-1,4-dihydropyridin-3-carboxamide] | 7.03 | > 8.96
COc1cc2nccc(Oc3cnc(NC(=O)c4nn(C5CC5)cc(-c5ccc(F)cc5)c4=O)nc3)c2cc1OC [Compound 33] | 7.43 | > 8.96
COc1cc2nccc(Oc3ncc(NC(=O)c4nn(C(C)C)cc(-c5ccc(F)cc5)c4=O)cn3)c2cc1OC [Compound 34, N-(2-((6,7-dimethoxyquinolin-4-yl)oxy)pyrimidine-5-yl)-5-para-fluorophenyl-1-isopropyl-4-oxo-1,4-dihydropyridazine-3-carboxamide] | 6.79 | > 8.96

Reference: patent US20220073496A1, “NOVEL QUINOLINE DERIVATIVE INHIBITOR” (Nanjing Transthera Biosciences Co., Ltd., priority 2018, published 2022)
